Experimental data published in US11793849B2, “Method of Chinese herbal medicine extract used for treating multiple diseases caused by drug resistant bacteria infection” (priority 2016, dated 2023).

Columns and labels:
MDRAB = test: MIC determination, microdilution broth method; type: cell-based, Acinetobacter baumannii
Procedure: Determination methods of a Minimal Inhibitory Concentration (MIC) and a Minimum Bactericidal Concentration (MBC) of a test product: the MIC and the MBC of the Pithecellobium clypearia Benth water or ethanol extract to the MDRAB are determined by a microdilution broth method. And it is operated by referring to the microdilution broth method recommended by National Committee for Clinical Laboratory Standards (NCCLS).

ATCC27853 = test: MIC determination, control strain; type: cell-based
Procedure: Determination methods of a Minimal Inhibitory Concentration (MIC) and a Minimum Bactericidal Concentration (MBC) of a test product: the MIC and the MBC of the Pithecellobium clypearia Benth water or ethanol extract to the MDRAB are determined by a microdilution broth method.

[1] = single use, 20 MDRABs, EA=10% ethanol extract
[2] = single use, 20 MDRABs, EA=water extract
[3] = single use, 20 MDRABs, section of the 60% ethanol extract
[4] = single use, 20 MDRABs, section of the 95% ethanol extract

Polymycin B [POLB] was tested, and the MIC50 (MDRAB; MDRABs, EA=60% ethanol extract) was 4 µg/mL, the MIC90 (MDRAB; MDRABs, EA=60% ethanol extract) was 16 µg/mL and the “MIC Range” value (MDRAB; MDRABs, EA=60% ethanol extract) was 0.5 to 64 µg/mL. The MIC50 (MDRAB; MDRABs, EA=95% ethanol extract) was 4 µg/mL, the MIC90 (MDRAB; MDRABs, EA=95% ethanol extract) was 16 µg/mL and the “MIC Range” value (MDRAB; MDRABs, EA=95% ethanol extract) was 0.5 to 64 µg/mL. For the same substance, the MIC50 (MDRAB; [1]) was 4 µg/mL, the MIC90 (MDRAB; [1]) was 16 µg/mL and the “MIC Range” value (MDRAB; [1]) was 0.5 to 64 µg/mL. The MIC50 (MDRAB; [2]) was 4 µg/mL, the MIC90 (MDRAB; [2]) was 16 µg/mL and the “MIC Range” value (MDRAB; [2]) was 0.5 to 64 µg/mL. The MIC50 (MDRAB; [3]) was 4 µg/mL, the MIC90 (MDRAB; [3]) was 16 µg/mL and the MIC50 (MDRAB; [4]) was 4 µg/mL. It also gave an MIC90 (MDRAB; [4]) of 16 µg/mL, an MIC (MDRAB; strain A1, EA=60% ethanol extract) of 8 µg/mL and an MIC (MDRAB; strain A1, EA=95% ethanol extract) of 8 µg/mL. For the same substance, the MIC (MDRAB; strain A1, single use, EA=10% ethanol extract) was 8 µg/mL, the MIC (MDRAB; strain A1, single use, EA=water extract) was 8 µg/mL and the MIC (MDRAB; strain A2, EA=60% ethanol extract) was 2 µg/mL. The MIC (MDRAB; strain A2, EA=95% ethanol extract) was 2 µg/mL, the MIC (MDRAB; strain A2, single use, EA=10% ethanol extract) was 2 µg/mL and the MIC (MDRAB; strain A2, single use, EA=water extract) was 2 µg/mL. The MIC (MDRAB; strain A3, EA=60% ethanol extract) was 2 µg/mL, the MIC (MDRAB; strain A3, EA=95% ethanol extract) was 2 µg/mL and the MIC (MDRAB; strain A3, single use, EA=10% ethanol extract) was 2 µg/mL. The MIC (MDRAB; strain A3, single use, EA=water extract) was 2 µg/mL, the MIC (MDRAB; strain A4, EA=60% ethanol extract) was 2 µg/mL and the MIC (MDRAB; strain A4, EA=95% ethanol extract) was 2 µg/mL. It also gave an MIC (MDRAB; strain A4, single use, EA=10% ethanol extract) of 2 µg/mL, an MIC (MDRAB; strain A4, single use, EA=water extract) of 2 µg/mL and an MIC (MDRAB; strain A5, EA=60% ethanol extract) of 4 µg/mL. The MIC (MDRAB; strain A5, EA=95% ethanol extract) was 4 µg/mL, the MIC (MDRAB; strain A5, single use, EA=10% ethanol extract) was 4 µg/mL and the MIC (MDRAB; strain A5, single use, EA=water extract) was 4 µg/mL. The MIC (MDRAB; strain A6, EA=60% ethanol extract) was 8 µg/mL, the MIC (MDRAB; strain A6, EA=95% ethanol extract) was 8 µg/mL and the MIC (MDRAB; strain A6, single use, EA=10% ethanol extract) was 8 µg/mL. It also gave an MIC (MDRAB; strain A6, single use, EA=water extract) of 8 µg/mL, an MIC (MDRAB; strain A7, EA=60% ethanol extract) of 4 µg/mL and an MIC (MDRAB; strain A7, EA=95% ethanol extract) of 4 µg/mL. The MIC (MDRAB; strain A7, single use, EA=10% ethanol extract) was 4 µg/mL, the MIC (MDRAB; strain A7, single use, EA=water extract) was 4 µg/mL and the MIC (MDRAB; strain A8, EA=60% ethanol extract) was 8 µg/mL. The MIC (MDRAB; strain A8, EA=95% ethanol extract) was 8 µg/mL, the MIC (MDRAB; strain A8, single use, EA=10% ethanol extract) was 8 µg/mL and the MIC (MDRAB; strain A8, single use, EA=water extract) was 8 µg/mL. For the same substance, the MIC (MDRAB; strain A9, EA=60% ethanol extract) was 1 µg/mL, the MIC (MDRAB; strain A9, EA=95% ethanol extract) was 1 µg/mL and the MIC (MDRAB; strain A9, single use, EA=10% ethanol extract) was 1 µg/mL. For the same substance, the MIC (MDRAB; strain A9, single use, EA=water extract) was 1 µg/mL, the MIC (MDRAB; strain A10, EA=60% ethanol extract) was 32 µg/mL and the MIC (MDRAB; strain A10, EA=95% ethanol extract) was 32 µg/mL. For the same substance, the MIC (MDRAB; strain A10, single use, EA=10% ethanol extract) was 32 µg/mL, the MIC (MDRAB; strain A10, single use, EA=water extract) was 32 µg/mL and the MIC (MDRAB; strain A11, EA=60% ethanol extract) was 16 µg/mL. It also gave an MIC (MDRAB; strain A11, EA=95% ethanol extract) of 16 µg/mL, an MIC (MDRAB; strain A11, single use, EA=10% ethanol extract) of 16 µg/mL and an MIC (MDRAB; strain A11, single use, EA=water extract) of 16 µg/mL. It also gave an MIC (MDRAB; strain A12, EA=60% ethanol extract) of 2 µg/mL, an MIC (MDRAB; strain A12, EA=95% ethanol extract) of 2 µg/mL and an MIC (MDRAB; strain A12, single use, EA=10% ethanol extract) of 2 µg/mL. It also gave an MIC (MDRAB; strain A12, single use, EA=water extract) of 2 µg/mL, an MIC (MDRAB; strain A13, EA=60% ethanol extract) of 2 µg/mL and an MIC (MDRAB; strain A13, EA=95% ethanol extract) of 2 µg/mL. For the same substance, the MIC (MDRAB; strain A13, single use, EA=10% ethanol extract) was 2 µg/mL, the MIC (MDRAB; strain A13, single use, EA=water extract) was 2 µg/mL and the MIC (MDRAB; strain A14, EA=60% ethanol extract) was 0.5 µg/mL. For the same substance, the MIC (MDRAB; strain A14, EA=95% ethanol extract) was 0.5 µg/mL, the MIC (MDRAB; strain A14, single use, EA=10% ethanol extract) was 0.5 µg/mL and the MIC (MDRAB; strain A14, single use, EA=water extract) was 0.5 µg/mL. The MIC (MDRAB; strain A15, EA=60% ethanol extract) was 2 µg/mL, the MIC (MDRAB; strain A15, EA=95% ethanol extract) was 2 µg/mL and the MIC (MDRAB; strain A15, single use, EA=10% ethanol extract) was 2 µg/mL. The MIC (MDRAB; strain A15, single use, EA=water extract) was 2 µg/mL, the MIC (MDRAB; strain A16, EA=60% ethanol extract) was 4 µg/mL and the MIC (MDRAB; strain A16, EA=95% ethanol extract) was 4 µg/mL. For the same substance, the MIC (MDRAB; strain A16, single use, EA=10% ethanol extract) was 4 µg/mL, the MIC (MDRAB; strain A16, single use, EA=water extract) was 4 µg/mL and the MIC (MDRAB; strain A17, EA=60% ethanol extract) was 64 µg/mL. For the same substance, the MIC (MDRAB; strain A17, EA=95% ethanol extract) was 64 µg/mL, the MIC (MDRAB; strain A17, single use, EA=10% ethanol extract) was 64 µg/mL and the MIC (MDRAB; strain A17, single use, EA=water extract) was 64 µg/mL. It also gave an MIC (MDRAB; strain A18, EA=60% ethanol extract) of 4 µg/mL, an MIC (MDRAB; strain A18, EA=95% ethanol extract) of 4 µg/mL and an MIC (MDRAB; strain A18, single use, EA=10% ethanol extract) of 4 µg/mL. The MIC (MDRAB; strain A18, single use, EA=water extract) was 4 µg/mL, the MIC (MDRAB; strain A19, EA=60% ethanol extract) was 4 µg/mL and the MIC (MDRAB; strain A19, EA=95% ethanol extract) was 4 µg/mL. It also gave an MIC (MDRAB; strain A19, single use, EA=10% ethanol extract) of 4 µg/mL, an MIC (MDRAB; strain A19, single use, EA=water extract) of 4 µg/mL and an MIC (MDRAB; strain A20, EA=60% ethanol extract) of 2 µg/mL. The MIC (MDRAB; strain A20, EA=95% ethanol extract) was 2 µg/mL, the MIC (MDRAB; strain A20, single use, EA=10% ethanol extract) was 2 µg/mL and the MIC (MDRAB; strain A20, single use, EA=water extract) was 2 µg/mL. The MIC (ATCC27853; EA=10% ethanol extract) was 1 µg/mL, the MIC (ATCC27853; EA=60% ethanol extract) was 1 µg/mL and the MIC (ATCC27853; EA=95% ethanol extract) was 1 µg/mL. It also gave an MIC (ATCC27853; EA=water extract) of 1 µg/mL.
